Assay results as given in patent US9867833B2, “Serine/threonine kinase inhibitors” (GENENTECH, INC., priority 2013, dated 2018).

What follows are compounds tested against human ERK-2 (Mitogen Activated Kinase 1) (Homo sapiens (Human), UniProt P28482) (assay: ERK-2 Enzymatic Assay). Conditions: human ERK-2 enzyme 5 nM, 25 μM ATP, S/T17 peptide substrate; isomer = configuration of CR2R3.
human ERK-2 (Mitogen Activated Kinase 1), sequence (P28482 8-360): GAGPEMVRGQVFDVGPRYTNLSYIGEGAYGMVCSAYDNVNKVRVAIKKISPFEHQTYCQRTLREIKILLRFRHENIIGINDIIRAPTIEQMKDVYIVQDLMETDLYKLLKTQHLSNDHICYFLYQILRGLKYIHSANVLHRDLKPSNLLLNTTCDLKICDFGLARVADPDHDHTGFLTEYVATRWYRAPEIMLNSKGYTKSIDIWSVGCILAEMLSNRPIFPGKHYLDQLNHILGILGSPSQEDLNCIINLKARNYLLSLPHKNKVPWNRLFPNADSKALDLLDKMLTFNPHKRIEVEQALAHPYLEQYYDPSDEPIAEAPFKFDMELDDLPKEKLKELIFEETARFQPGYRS
Assay type: biochemical
Description: Compounds were tested in an enzymatic assay using human ERK-2 (Mitogen Activated Kinase 1), recombinantly expressed as an n-terminal 6-His fusion protein in E. coli and corresponding to aa 8-360. […] Test compounds were diluted in DMSO in 3-fold serial dilutions at 100× final concentrations. […] The data collected from each well was fit to a straight line, and the resulting rates were used to calculate percent of control. Percent of control was plotted against compound concentration, and IC50 values were determined using a four-parameter fit.
Work on Cn1nccc1Nc1cc(-c2cc3n4c(nnc4c2)[C@H](c2ccccc2)CN3)ccn1 (single isomer, unassigned) [(R) I-4, N-(1-methyl-1H-pyrazol-5-yl)-4-(3-phenyl-4,5-dihydro-3H-1,2,2a^1,5-tetraazaacenaphthylen-7-yl)pyridin-2-amine] yielded an IC50 of 43.1 nM.
For Cn1nccc1Nc1cc(-c2cc3n4c(nnc4c2)C(Cc2ccccc2Cl)CCO3)ccn1 (single isomer, unassigned) [(R) I-30, 4-(9-(2-chlorobenzyl)-8,9-dihydro-7H-6-oxa-1,2,2a^1-triazabenzo[cd]azulen-4-yl)-N-(1-methyl-1H-pyrazol-5-yl)pyridin-2-amine], the IC50 was 2.55 nM.
Work on CCC(C)CC1COc2cc(-c3ccnc(Nc4ccnn4C)n3)cc3nnc1n23 (single isomer, unassigned) [(R) I-52, N-(1-methyl-1H-pyrazol-5-yl)-4-(3-(2-methylbutyl)-3,4-dihydro-5-oxa-1,2,2a^1-triazaacenaphthylen-7-yl)pyrimidin-2-amine] yielded an IC50 of less than 0.02 nM.
For Cn1nccc1Nc1cc(-c2cc3n4c(nnc4c2)C(Cc2ccc(Cl)cc2)CO3)ccn1 (single isomer, unassigned) [(R) I-55, 4-(3-(4-chlorobenzyl)-3,4-dihydro-5-oxa-1,2,2a^1-triazaacenaphthylen-7-yl)-N-(1-methyl-1H-pyrazol-5-yl)pyridin-2-amine], the IC50 was less than 0.02 nM.
With Cn1nccc1Nc1cc(-c2cc3n4c(nnc4c2)C(Cc2ccccc2Cl)CCO3)ccn1 (single isomer, unassigned) [(R) I-60, 4-(9-(2-chlorobenzyl)-8,9-dihydro-7H-6-oxa-1,2,2a^1-triazabenzo[cd]azulen-4-yl)-N-(1-methyl-1H-pyrazol-5-yl)pyridin-2-amine] the IC50 was 2.55 nM.
CCCC1COc2cc(-c3ccnc(Nc4ccnn4C)n3)cc3nnc1n23 (single isomer, unassigned) [(R) I-101, N-(1-methyl-1H-pyrazol-5-yl)-4-(3-propyl-3,4-dihydro-5-oxa-1,2,2a^1-triazaacenaphthylen-7-yl)pyrimidin-2-amine] was tested, and the IC50 was 0.038 nM.
In the case of Cn1nccc1Nc1cc(-c2cc3n4c(nnc4c2)[C@@H](c2ccccc2)CN3)ccn1 (single isomer, unassigned) [(S) I-4, N-(1-methyl-1H-pyrazol-5-yl)-4-(3-phenyl-4,5-dihydro-3H-1,2,2a^1,5-tetraazaacenaphthylen-7-yl)pyridin-2-amine], the IC50 is reported as less than 0.02 nM.
Compound CCC(C)CC1COc2cc(-c3ccnc(Nc4ccnn4C)n3)cc3nnc1n23 (single isomer, unassigned) [(S) I-52, N-(1-methyl-1H-pyrazol-5-yl)-4-(3-(2-methylbutyl)-3,4-dihydro-5-oxa-1,2,2a^1-triazaacenaphthylen-7-yl)pyrimidin-2-amine] has an IC50 of 93.4 nM.
For Cn1nccc1Nc1cc(-c2cc3n4c(nnc4c2)C(Cc2ccc(Cl)cc2)CO3)ccn1 (single isomer, unassigned) [(S) I-55, 4-(3-(4-chlorobenzyl)-3,4-dihydro-5-oxa-1,2,2a^1-triazaacenaphthylen-7-yl)-N-(1-methyl-1H-pyrazol-5-yl)pyridin-2-amine], the IC50 was 12.5 nM.
Compound Cn1nccc1Nc1cc(-c2cc3n4c(nnc4c2)C(Cc2ccccc2Cl)CCO3)ccn1 (single isomer, unassigned) [(S) I-60, 4-(9-(2-chlorobenzyl)-8,9-dihydro-7H-6-oxa-1,2,2a^1-triazabenzo[cd]azulen-4-yl)-N-(1-methyl-1H-pyrazol-5-yl)pyridin-2-amine] has an IC50 of less than 0.02 nM.
CCCC1COc2cc(-c3ccnc(Nc4ccnn4C)n3)cc3nnc1n23 (single isomer, unassigned) [(S) I-101, N-(1-methyl-1H-pyrazol-5-yl)-4-(3-propyl-3,4-dihydro-5-oxa-1,2,2a^1-triazaacenaphthylen-7-yl)pyrimidin-2-amine] showed an IC50 of 19.5 nM.
Cn1nccc1Nc1nccc(-c2cc3n4c(nnc4c2)[C@H](c2ccccc2)CN3)n1 [(R) I-1, N-(1-methyl-1H-pyrazol-5-yl)-4-(3-phenyl-4,5-dihydro-3H-1,2,2a^1,5-tetraazaacenaphthylen-7-yl)pyrimidin-2-amine] showed an IC50 of 179 nM.
For Cn1nccc1Nc1nccc(-c2cc3n4c(nnc4c2)[C@H](Cc2ccccc2)CN3)n1 [(R) I-2, (R)-4-(3-benzyl-4,5-dihydro-3H-1,2,2a^1,5-tetraazaacenaphthylen-7-yl)-N-(1-methyl-1H-pyrazol-5-yl)pyrimidin-2-amine], the IC50 was 0.38 nM.
Compound Cn1nccc1Nc1nccc(-c2cc3n4c(nnc4c2)[C@H](Cc2ccc(Cl)cc2)CN3)n1 [(R) I-5, 4-(3-(4-chlorobenzyl)-4,5-dihydro-3H-1,2,2a^1,5-tetraazaacenaphthylen-7-yl)-N-(1-methyl-1H-pyrazol-5-yl)pyrimidin-2-amine] has an IC50 of 0.408 nM.
Cn1nccc1Nc1cc(-c2cc3n4c(nnc4c2)[C@H](Cc2ccccc2)CN3)ccn1 [(R) I-7, 4-(3-benzyl-4,5-dihydro-3H-1,2,2a^1,5-tetraazaacenaphthylen-7-yl)-N-(1-methyl-1H-pyrazol-5-yl)pyridin-2-amine] gave an IC50 of 0.707 nM.
With Cn1nccc1Nc1cc(-c2cc3n4c(ncc4c2)[C@H](Cc2ccc(Cl)cc2)CN3)ccn1 [(R) I-8, 4-(3-(4-chlorobenzyl)-4,5-dihydro-3H-1,2,2a^1,5-tetraazaacenaphthylen-7-yl)-N-(1-methyl-1H-pyrazol-5-yl)pyridin-2-amine] the IC50 was 1.55 nM.
CN1C[C@@H](Cc2ccccc2)c2nnc3cc(-c4ccnc(Nc5ccnn5C)n4)cc1n23 [(R) I-9, 4-(3-benzyl-5-methyl-4,5-dihydro-3H-1,2,2a^1,5-tetraazaacenaphthylen-7-yl)-N-(1-methyl-1H-pyrazol-5-yl)pyrimidin-2-amine] gave an IC50 of 5.04 nM.
CC(C)C[C@@H]1CNc2cc(-c3ccnc(Nc4ccnn4C)n3)cc3nnc1n23 [(R) I-10, 4-(3-isobutyl-4,5-dihydro-3H-1,2,2a^1,5-tetraazaacenaphthylen-7-yl)-N-(1-methyl-1H-pyrazol-5-yl)pyrimidin-2-amine] gave an IC50 of 2.75 nM.
With COc1ccc(C[C@@H]2CNc3cc(-c4ccnc(Nc5ccnn5C)n4)cc4nnc2n34)cc1 [(R) I-11, 4-(3-(4-methoxybenzyl)-4,5-dihydro-3H-1,2,2a^1,5-tetraazaacenaphthylen-7-yl)-N-(1-methyl-1H-pyrazol-5-yl)pyrimidin-2-amine] the IC50 was 0.514 nM.
For COc1ccc(C[C@@H]2CNc3cc(-c4ccnc(Nc5ccnn5C)n4)cc4nnc2n34)cc1F [(R) I-12, 4-(3-(3-fluoro-4-methoxybenzyl)-4,5-dihydro-3H-1,2,2a^1,5-tetraazaacenaphthylen-7-yl)-N-(1-methyl-1H-pyrazol-5-yl)pyrimidin-2-amine], the IC50 was 0.311 nM.
With Cn1nccc1Nc1nccc(-c2cc3n4c(nnc4c2)[C@H](Cc2ccc(Cl)c(F)c2)CN3)n1 [(R) I-14, 4-(3-(4-chloro-3-fluorobenzyl)-4,5-dihydro-3H-1,2,2a^1,5-tetraazaacenaphthylen-7-yl)-N-(1-methyl-1H-pyrazol-5-yl)pyrimidin-2-amine] the IC50 was 0.0441 nM.
Cn1nccc1Nc1nccc(-c2cc3n4c(nnc4c2)[C@@H](Cc2ccccc2)CO3)n1 [(R) I-15, 4-(3-benzyl-3,4-dihydro-5-oxa-1,2,2a^1-triazaacenaphthylen-7-yl)-N-(1-methyl-1H-pyrazol-5-yl)pyrimidin-2-amine] was tested, and the IC50 was 0.02 nM.
For COc1ccc(C[C@@H]2CN(C)c3cc(-c4ccnc(Nc5ccnn5C)c4)cc4nnc2n34)cc1 [(R) I-18, 4-(3-(4-methoxybenzyl)-5-methyl-4,5-dihydro-3H-1,2,2a^1,5-tetraazaacenaphthylen-7-yl)-N-(1-methyl-1H-pyrazol-5-yl)pyridin-2-amine], the IC50 was 0.036 nM.
In the case of CC(C)C[C@@H]1CN(C)c2cc(-c3ccnc(Nc4ccnn4C)c3)cc3nnc1n23 [(R) I-20, 4-(3-isobutyl-5-methyl-4,5-dihydro-3H-1,2,2a^1,5-tetraazaacenaphthylen-7-yl)-N-(1-methyl-1H-pyrazol-5-yl)pyridin-2-amine], the IC50 is reported as 48.7 nM.
Cn1nccc1Nc1nccc(-c2cc3n4c(nnc4c2)[C@H](Cc2ccc(F)cc2)CN3)n1 [(R) I-21, 4-(3-(4-fluorobenzyl)-4,5-dihydro-3H-1,2,2a^1,5-tetraazaacenaphthylen-7-yl)-N-(1-methyl-1H-pyrazol-5-yl)pyrimidin-2-amine] was tested, and the IC50 was 0.731 nM.
Compound CN1C(=O)C[C@@H](Cc2ccc(Cl)cc2)c2nnc3cc(-c4ccnc(Nc5ccnn5C)n4)cc1n23 [(R) I-22, 9-(4-chlorobenzyl)-6-methyl-4-(2-((1-methyl-1H-pyrazol-5-yl)amino)pyrimidin-4-yl)-8,9-dihydro-1,2,2a^1,6-tetraazabenzo[cd]azulen-7(6H)-one] has an IC50 of 88.2 nM.
Compound COc1ccc(C[C@@H]2CNc3cc(-c4ccnc(Nc5ccnn5C)n4)cc4nnc2n34)cn1 [(R) I-24, 4-(3-((6-methoxypyridin-3-yl)methyl)-4,5-dihydro-3H-1,2,2a^1,5-tetraazaacenaphthylen-7-yl)-N-(1-methyl-1H-pyrazol-5-yl)pyrimidin-2-amine] has an IC50 of 1.85 nM.
Cn1nccc1Nc1nccc(-c2cc3n4c(nnc4c2)[C@H](COCc2ccccc2)CCO3)n1 [(R) I-29, 4-(9-((benzyloxy)methyl)-8,9-dihydro-7H-6-oxa-1,2,2a^1-triazabenzo[cd]azulen-4-yl)-N-(1-methyl-1H-pyrazol-5-yl)pyrimidin-2-amine] showed an IC50 of 0.109 nM.
Compound CN1C[C@@H](Cc2ccc(F)cc2)c2nnc3cc(-c4ccnc(Nc5ccnn5C)n4)cc1n23 [(R) I-31, 4-(3-(4-fluorobenzyl)-5-methyl-4,5-dihydro-3H-1,2,2a^1,5-tetraazaacenaphthylen-7-yl)-N-(1-methyl-1H-pyrazol-5-yl)pyrimidin-2-amine] has an IC50 of 1.35 nM.
In the case of Cn1nccc1Nc1nccc(-c2cc3n4c(nnc4c2)[C@H](Cc2ccc(Cl)cc2)CCO3)n1 [(R) I-36, 4-(9-(4-chlorobenzyl)-8,9-dihydro-7H-6-oxa-1,2,2a^1-triazabenzo[cd]azulen-4-yl)-N-(1-methyl-1H-pyrazol-5-yl)pyrimidin-2-amine], the IC50 is reported as 0.69 nM.
